Test results published in patent US10375956B2, “Herbicidally active 2-(substituted-phenyl)-cyclopentane-1,3-dione compounds and derivatives thereof” (Syngenta Limited, priority 2013, dated 2019).

Columns and labels:
Type in all cases: in vivo
[1] = test system: Echinochloa crus-galli (ECHCG); test: Test 1 glasshouse assay, post-emergence herbicidal activity; conditions: 312 h, post-emergence (Example 1B Table 1), after 13 days, read-out: Percentage phytotoxicity ECHCG
Protocol: Seeds of a variety of test species are sown in standard soil in pots. After cultivation for one day (pre-emergence) or after 8 days cultivation (post-emergence) under controlled conditions in a glasshouse (at 24/16° C., day/night; 14 hours light; 65% humidity), the plants are sprayed with an aqueous spray solution derived from the formulation of the “technical” (i.e. unformulated) active ingredient in acetone/water (50:50) solution containing 0.5% Tween 20 (polyoxyethylene sorbitan monolaurate, CAS Registry Number 9005-64-5). The test plants are then grown on under controlled conditions in a glasshouse (at 24/16° C., day/night; 14 hours light; 65% humidity) and watered twice daily. After 13 days for pre- or post-emergence, the test is evaluated visually, and an assessed percentage phytotoxicity score is given for each herbicidal application on each plant species (where 100%=total damage to plant; 0%=no damage to plant).
Test plants include the following: Abutilon theophrasti (ABUTH) and Amaranthus retroflexus (AMARE); these are all dicotyledonous (broadleaved) weeds. Setaria faberi (SETFA), Alopecurus myosuroides (ALOMY), and Echinochloa crus-galli (ECHCG); these are all grassy monocotyledonous weeds. Also: Zea mays (ZEAMX, corn/maize), which can be a grassy weed (“volunteer” corn) in some circumstances.
Lolium perenne (LOLPE), Alopecurus myosuroides (ALOMY), Echinochloa crus-galli (ECHCG), and Avena fatua (AVEFA); these are all grassy monocotyledonous weeds. Cool climate crop plant: Triticum aestivum (TRZAW, winter wheat).

[2] = test system: Alopecurus myosuroides (ALOMY); test: Test 2 glasshouse assay (IF50 formulation, X-77), post-emergence herbicidal activity; conditions: 360 h, 15 DAA, visual score, read-out: Post-emergence herbicidal activity (percentage phytotoxicity) ALOMY; for pest or weed control at 30 g/ha: application rate 30 g/ha; for pest or weed control at 125 g/ha: application rate 125 g/ha; for pest or weed control at 250 g/ha: application rate 250 g/ha
Protocol: (§1) Seeds of a variety of monocotyledonous and dicotyledonous test plants are sown in standard soil in pots. The plants are cultivated for one day (for pre-emergence) or for about 12 days (for post-emergence) under controlled conditions in a glasshouse (warm climate species at 24/18° C., cool climate species at 20/16° C., both at day/night; 16 hours light; 65% humidity).
(§2) An “instant formulation”, known as the “IF50”, containing 50 g/liter (i.e. 5% w/v) of the “technical” (i.e. unformulated) active ingredient is prepared by dissolving the active ingredient in a mixture of organic solvents and emulsifier, details of which are provided in the Table below. This IF50 is then mixed with a small, variable amount of acetone to aid dissolution, before addition of a 0.2% v/v aqueous solution of the adjuvant X-77 (which is a mixture of alkyl aryl polyoxyethylene glycols and free fatty acids in isopropanol, CAS Registry number 11097-66-8), as the aqueous diluent, to form an aqueous spray solution which contains a predetermined concentration of the active ingredient (which varies depending on the application rate of the active ingredient to the plants) and 0.2% v/v of the adjuvant X-77. This aqueous spray solution is then sprayed onto the plants, after one day's cultivation (for pre-emergence), or after about 12 days' cultivation (range=10-13 days) (for post-emergence).
(§3) The test plants are then grown on, in a glasshouse (greenhouse) under controlled conditions (warm climate species at 24/18° C., cool climate species at 20/16° C., both at day/night; 16 hours light; 65% humidity) and are watered twice daily. 15 days after application of the test herbicide (15DAA) (for post-emergence), and 20 days after application of the test herbicide (20DAA) (for pre-emergence), the test plants are evaluated visually, and an assessed percentage phytotoxicity score is given for each herbicidal application on each plant species (with 100%=total damage to plant; 0%=no damage to plant).
(§4) Cool climate (“cool season”) grassy monocotyledonous weeds: Alopecurus myosuroides (ALOMY), Avena fatua (AVEFA), Lolium perenne (LOLPE).

Lolium perenne (LOLPE) [3] = test: as above; conditions: 360 h, 15 DAA, visual score, read-out: Post-emergence herbicidal activity (percentage phytotoxicity) LOLPE; for pest or weed control at 30 g/ha: application rate 30 g/ha; for pest or weed control at 125 g/ha: application rate 125 g/ha; for pest or weed control at 250 g/ha: application rate 250 g/ha
Protocol: as §1, §2, §3, §4

Avena fatua (AVEFA) = test: as above; conditions: 360 h, 15 DAA, visual score, read-out: Post-emergence herbicidal activity (percentage phytotoxicity) AVEFA; for pest or weed control at 30 g/ha: application rate 30 g/ha; for pest or weed control at 125 g/ha: application rate 125 g/ha; for pest or weed control at 250 g/ha: application rate 250 g/ha
Protocol: as §1, §2, §3, §4

[4] = test system: Digitaria sanguinalis (DIGSA); test: as above; conditions: 360 h, 15 DAA, visual score, read-out: Post-emergence herbicidal activity (percentage phytotoxicity) DIGSA; for pest or weed control at 30 g/ha: application rate 30 g/ha; for pest or weed control at 125 g/ha: application rate 125 g/ha; for pest or weed control at 250 g/ha: application rate 250 g/ha
Summary of the method: (§5)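 Percent phytotoxicity is scored by eye 20 days after a pre-emergence spray given one day after sowing, or 15 days after a post-emergence spray given about 12 days after sowing. Spray is IF50 formulation diluted in 0.2% v/v X-77 aqueous adjuvant.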

Setaria faberi (SETFA) = test: as above; conditions: 360 h, 15 DAA, visual score, read-out: Post-emergence herbicidal activity (percentage phytotoxicity) SETFA; for pest or weed control at 30 g/ha: application rate 30 g/ha; for pest or weed control at 125 g/ha: application rate 125 g/ha; for pest or weed control at 250 g/ha: application rate 250 g/ha
Summary of the method: as §5

[5] = test system: Glycine max (GLXMA, soybean); test: as above; conditions: 360 h, 15 DAA, visual score, read-out: Post-emergence herbicidal activity (percentage phytotoxicity) GLXMA; for plant injury at 30 g/ha: application rate 30 g/ha; for plant injury at 125 g/ha: application rate 125 g/ha; for plant injury at 250 g/ha: application rate 250 g/ha
Protocol: as §1, §2, §3
(§6) Cool climate crop plants: Triticum aestivum (TRZAW, winter wheat), Brassica napus (BRSNN, rape, also called oilseed rape or rapeseed), Beta vulgaris (BEAVA, sugarbeet). Warm climate crop plants: Glycine max (GLXMA, soybean).

[6] = test system: Beta vulgaris (BEAVA, sugarbeet); test: as above; conditions: 360 h, 15 DAA, visual score, read-out: Post-emergence herbicidal activity (percentage phytotoxicity) BEAVA; for plant injury at 30 g/ha: application rate 30 g/ha; for plant injury at 125 g/ha: application rate 125 g/ha; for plant injury at 250 g/ha: application rate 250 g/ha
Protocol: as §1, §2, §3, §6

[7] = test system: Triticum aestivum (TRZAW, winter wheat); test: as above; conditions: 360 h, 15 DAA, visual score, read-out: Post-emergence herbicidal activity (percentage phytotoxicity) TRZAW; for plant injury at 30 g/ha: application rate 30 g/ha; for plant injury at 125 g/ha: application rate 125 g/ha; for plant injury at 250 g/ha: application rate 250 g/ha
Protocol: as §1, §2, §3, §6

[8] = test system: Brassica napus (BRSNN, rape); test: as above; conditions: 360 h, 15 DAA, visual score, read-out: Post-emergence herbicidal activity (percentage phytotoxicity) BRSNN; for plant injury at 30 g/ha: application rate 30 g/ha; for plant injury at 125 g/ha: application rate 125 g/ha; for plant injury at 250 g/ha: application rate 250 g/ha
Protocol: as §1, §2, §3, §6

Lolium perenne (LOLPE) [9] = test: Test 2 glasshouse assay (IF50 formulation, X-77), pre-emergence herbicidal activity; conditions: 480 h, 125 g/ha, 20DAA, read-out: Percentage phytotoxicity LOLPE
Protocol: as §1, §2, §3, §4

| SMILES | pest or weed control at 30 g/ha [1] | pest or weed control at 250 g/ha [1] | pest or weed control at 30 g/ha [2] | pest or weed control at 125 g/ha [2] | pest or weed control at 30 g/ha (Lolium perenne (LOLPE) [3]) | pest or weed control at 125 g/ha (Lolium perenne (LOLPE) [3]) | pest or weed control at 30 g/ha (Avena fatua (AVEFA)) | pest or weed control at 125 g/ha (Avena fatua (AVEFA)) | pest or weed control at 30 g/ha [4] | pest or weed control at 125 g/ha [4] | pest or weed control at 30 g/ha (Setaria faberi (SETFA)) | pest or weed control at 125 g/ha (Setaria faberi (SETFA)) | plant injury at 30 g/ha [5] | plant injury at 125 g/ha [5] | plant injury at 30 g/ha [6] | plant injury at 125 g/ha [6] | plant injury at 30 g/ha [7] | plant injury at 125 g/ha [7] | plant injury at 30 g/ha [8] | plant injury at 125 g/ha [8] | further results |
| --- | --- | --- | --- | --- | --- | --- | --- | --- | --- | --- | --- | --- | --- | --- | --- | --- | --- | --- | --- | --- | --- |
| C#CCC1CC(=O)C(c2c(F)cc(-c3ccc(F)cc3F)cc2OC)C1=O (centres unmarked) [Compound A21] | 90% | 100% |  |  |  |  |  |  |  |  |  |  |  |  |  |  |  |  |  |  |  |
| C#CCC1CC(=O)C(c2c(C)cc(-c3ccc(F)cc3)cc2C)C1=O (centres unmarked) [Compound A1, 2-[4-(4-fluorophenyl)-2,6-dimethyl-phenyl]-4-prop-2-ynylcyclopentane-1,3-dione] |  | 100% | 60% | 80% | 70% | 80% | 70% | 100% | 100% | 100% | 90% | 100% | 0% | 0% | 70% | 70% | 80% | 80% | 70% | 70% | pest or weed control at 125 g/ha (Lolium perenne (LOLPE) [9]): 80%; pest or weed control at 62.5 g/ha [1]: 100% |
| C#CCC1CC(OC(C)=O)=C(c2c(C)cc(-c3ccc(F)cc3)cc2C)C1=O (centres unmarked) [Compound A45] |  | 100% | 70% | 90% | 80% | 100% | 70% | 90% | 100% | 100% | 90% | 100% | 0% | 10% | 70% | 70% | 80% | 80% | 50% | 80% | pest or weed control at 125 g/ha (Lolium perenne (LOLPE) [9]): 90%; pest or weed control at 62.5 g/ha [1]: 100% |
| C#CCC1CC(=O)C(c2cc(-c3ncc(Cl)cn3)ccc2C)C1=O (centres unmarked) [Compound A19] | 70% | 90% |  |  |  |  |  |  |  |  |  |  |  |  |  |  |  |  |  |  | pest or weed control at 250 g/ha [2]: 40%; pest or weed control at 250 g/ha (Lolium perenne (LOLPE) [3]): 10%; pest or weed control at 250 g/ha (Avena fatua (AVEFA)): 10%; pest or weed control at 250 g/ha [4]: 70%; pest or weed control at 250 g/ha (Setaria faberi (SETFA)): 60%; plant injury at 250 g/ha [5]: 20%; plant injury at 250 g/ha [6]: 0%; plant injury at 250 g/ha [7]: 30%; plant injury at 250 g/ha [8]: 10% |
| C#CCC1CC(=O)C(c2cc(-c3ncc(Cl)cc3F)ccc2C)C1=O (centres unmarked) [Compound A18] | 60% | 80% |  |  |  |  |  |  |  |  |  |  |  |  |  |  |  |  |  |  | pest or weed control at 250 g/ha [2]: 30%; pest or weed control at 250 g/ha (Lolium perenne (LOLPE) [3]): 10%; pest or weed control at 250 g/ha (Avena fatua (AVEFA)): 30%; pest or weed control at 250 g/ha [4]: 50%; pest or weed control at 250 g/ha (Setaria faberi (SETFA)): 70%; plant injury at 250 g/ha [5]: 40%; plant injury at 250 g/ha [6]: 50%; plant injury at 250 g/ha [7]: 30%; plant injury at 250 g/ha [8]: 20% |
| C#CCC1CC(=O)C(c2c(F)cc(-c3ccc(F)cc3)cc2OC)C1=O (centres unmarked) [Compound A20, 2-[2-fluoro-4-(4-fluorophenyl)-6-methoxyphenyl]-4-prop-2-ynylcyclopentane-1,3-dione] | 80% | 100% |  |  |  |  |  |  |  |  |  |  |  |  |  |  |  |  |  |  |  |
